The results in this text go back to patent publication US20260263470A1, “A METHOD FOR THE TREATMENT OF CHRONIC HAND ECZEMA IN PATIENTS WITH MODERATE TO SEVERE CHRONIC HAND ECZEMA” (priority 2023, published 2026).

Molecules are shown by their SMILES. In brackets after ≈: the same amount, converted by molar mass.

A short description of series [1]: Plasma protein binding. In kind it is in vitro ADME.
Series [2] in a line: Phase 1 trial, single oral doses of delgocitinib in healthy volunteers. The settings on record: human, plasma, single oral dose 1.5 mg, read-out: peak systemic exposure (geometric mean Cmax). In kind it is in vivo. The text has this:
(§1) Data are reported as geometric means.

Series [3] in a line: Systemic exposure in DELTA 2: plasma concentrations of delgocitinib after cream application (LC/MS). In kind it is in vivo, human. To be noted: for plasma concentration of delgocitinib (geometric mean): 2-6 hours after application of cream 20 mg/g twice daily.
Description: as §1

In series [4] the test system is adult patients with moderate-to-severe CHE. Description: DELTA 1 and DELTA 2 together (pooled analyses and statements made for both trials). In kind it is in vivo, human. As to the method:
In a pooled analysis of both trials, changes in EQ-5D scores from baseline to week 16 were assessed in all patients and in a post-hoc analysis of patients achieving clinical responses (defined as Hand Eczema Area and Severity Index (HECSI)-50, -75, and -90, Investigator's Global Assessment for CHE treatment success [IGA-CHE TS; clear or almost clear skin with a ≥2-step improvement from baseline] and ≥4-point improvements in Hand Eczema Symptom Diary (HESD) itch and pain scores.
DELTA 1 and DELTA 2 were phase 3 trials of identical design. […] Data were pooled from both trials and changes in DLQI scores were assessed from baseline to week 16 in all patients and in a post-hoc analysis of patients achieving clinical responses, defined as Hand Eczema Area and Severity Index (HECSI)-50, -75, and -90, Investigator's Global Assessment for CHE treatment success (IGA-CHE TS; a score of 0/1 with a ≥2-step improvement from baseline), and ≥4-point improvements in Hand Eczema Symptom Diary (HESD) itch and pain scores.
The Hand Eczema Symptom eDiary (HESD) captured patient-reported severity of itch and pain over the past 24 hours on an 11-point numeric rating scale (0=no itch/pain to 10=severe itch/pain). Changes in itch and pain from baseline were assessed daily during Week (W)1 and weekly from W1-16.

Series [5] can be described thus: Half-life following repeated topical administration of delgocitinib cream. The settings on record: human, plasma, 20 mg/g. In kind it is in vivo.
The test system of series [6] is IL-4 release in whole-blood. Description: in vitro IL-4 release assay in whole-blood of healthy volunteers. In kind it is cell-based. The settings on record: Homo sapiens; whole-blood of healthy volunteers (n=4).
Description: as §1

`C[C@H]1CN(C(=O)CC#N)[C@]12CCN(c1ncnc3[nH]ccc13)C2` [delgocitinib, Delgocitinib] showed a fraction unbound in series [1] of 0.71 to 0.78. The Cmax turned out to be 7.2 ng/mL in series [2] and 0.46 ng/mL in series [3] (human, plasma, topical, 20 mg/g, given as Delta 2, day 8, read-out: geometric mean maximum plasma concentration (Cmax)). The “decrease of detectable absorption by week 16” value in series [3] (DELTA 2) was found to be 48%. The “plasma concentration of delgocitinib (geometric mean)” value was determined as 0.21 ng/mL in series [3] (DELTA 2, Week 1); 0.20 ng/mL in series [3] (DELTA 2, Week 4); 0.12 ng/mL in series [3] (DELTA 2, Week 16). Moreover, in series [3] (DELTA 2, week 16), the “mean plasma concentration in the remaining subjects with detectable absorption” value is 0.11 ng/mL. Further, the steady state reached in series [3] (given as Delta 2) is not above 8 days. In series [3] (human, plasma, topical, 20 mg/g, given as Delta 2, day 8, read-out: area under the concentration-curve from time 0 to 12 hours (AUC0-12), geometric mean), the AUC(0-t) was 3.7 ng·h/mL. For the same compound, the “rates of all AEs, AEs related to study drug and AEs leading to discontinuation of study drug, versus cream vehicle” value in series [4] (baseline to trial completion) is recorded as “numerically higher with cream vehicle compared to delgocitinib”. For the same compound, the “onset of itch and pain reduction” value in series [4] (pooled) was “Early onset of itch and pain reduction was observed within W1”. Besides, the half-life in series [5] was 20.3 h. For the same compound, in series [6], half-maximal inhibition (IC50) required 0.0172 µg/mL (≈ 0.0554 µM).
